Laboratory results from patent US20100210558A1, “MINIGASTRIN AS A THERAPEUTIC AGENT” (priority 2007, published 2010).
Where no end group is shown, it is not given here.

Tested on: drug-resistant Mycobacterium tuberculosis
Settings: 5 micrograms per ml

With LEEEEEAYGWMDF-NH2 [Minigastrin I] the “% inhibition” value was 0.0%.
